The supplement of paper PMC10307832

Tests used:
Assay in all cases: relative viability (nuclei count vs DMSO), 5 days (fraction); higher = more cells survive
[1] = compound: O=C(Nc1cc(C(F)(F)F)cc(C(F)(F)F)c1)c1cc(Cl)ccc1O [IMD-0354] + C[C@]1(O)C[C@@H](c2nc(-c3ccc4ccc(-c5ccccc5)nc4c3)c3c(N)nccn32)C1 [Linsitinib] (partner 1 µM)
In short: (§1)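 Relative viability was taken as the ratio of nuclei in treated wells to nuclei in vehicle wells. Lung cancer cell lines in 1536-well plates received compounds by pin tool one day after seeding, either one drug alone or a fixed anchor-drug dose plus five library-drug doses (not always all listed) in √10 steps. Nuclei were counted on 4× images after 5 days of treatment, and values are medians of duplicate plates.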

[2] = compound: Cc1cnc(CNC(=O)c2c(=O)c3ccc(N4CCCN(C)CC4)nc3n3c2sc2ccccc23)cn1 [CX-5461] + CC1(C)CCC(c2ccc(Cl)cc2)=C(CN2CCN(c3ccc(C(=O)NS(=O)(=O)c4ccc(N[C@H](CCN5CCOCC5)CSc5ccccc5)c(S(=O)(=O)C(F)(F)F)c4)cc3)CC2)C1 [Navitoclax] (partner 0.5 µM)
In short: as §1

[3] = compound: Cc1cnc(CNC(=O)c2c(=O)c3ccc(N4CCCN(C)CC4)nc3n3c2sc2ccccc23)cn1 [CX-5461] + CC(=O)c1c(C)c2cnc(Nc3ccc(N4CCNCC4)cn3)nc2n(C2CCCC2)c1=O [Palbociclib] (partner 0.5 µM)
In short: as §1

[4] = compound: O=C(Nc1cc(C(F)(F)F)cc(C(F)(F)F)c1)c1cc(Cl)ccc1O [IMD-0354] + C[C@@H](Oc1cc(-c2cnn(C3CCNCC3)c2)cnc1N)c1c(Cl)ccc(F)c1Cl [Crizotinib] (partner 1 µM)
In short: as §1

Row | Cell Line | relative viability ([1]; first compound 0.04 µM) | relative viability ([1]; first compound 0.1265 µM) | relative viability ([1]; first compound 0.4 µM) | relative viability ([1]; first compound 1.265 µM) | relative viability ([1]; first compound 4 µM) | relative viability ([2]; first compound 0.01 µM) | relative viability ([2]; first compound 0.03162 µM) | relative viability ([2]; first compound 0.3162 µM) | relative viability ([2]; first compound 1 µM) | relative viability ([3]; first compound 0.01 µM) | relative viability ([3]; first compound 0.03162 µM) | relative viability ([3]; first compound 0.1 µM) | relative viability ([3]; first compound 0.3162 µM) | relative viability ([3]; first compound 1 µM) | relative viability ([4]; first compound 0.04 µM) | relative viability ([4]; first compound 0.1265 µM) | relative viability ([4]; first compound 0.4 µM) | relative viability ([4]; first compound 1.265 µM) | relative viability ([4]; first compound 4 µM) | relative viability ([2]; first compound 0.1 µM)
1 | NCI-H1666 | 0.747 | 0.957 | 0.609 | 0.17 | 0.299 | 0.967 | 1 | 0.766 | 0.397 | 0.63 | 0.624 | 0.678 | 0.626 | 0.572 | 0.867 | 1.02 | 0.94 | 0.251 | 0.151 | 
2 | NCI-H1734 | 1.04 | 0.936 | 0.513 | 0.596 | 0.231 | 0.979 | 0.896 | 0.728 | 0.761 | 0.325 | 0.391 | 0.34 | 0.317 | 0.292 | 0.803 | 0.685 | 0.4 | 0.422 | 0.244 | 0.887
3 | NCI-H1755 | 0.998 | 1.02 | 0.665 | 0.666 | 0.22 | 0.979 | 0.992 | 0.997 | 0.883 | 0.434 | 0.449 | 0.431 | 0.447 | 0.466 | 0.925 | 0.965 | 0.46 | 0.31 | 0.17 | 1.01
4 | NCI-H1792 | 0.627 | 0.424 | 0.906 | 0.471 | 0.293 | 0.657 | 0.674 | 0.692 | 0.468 | 0.608 | 0.719 | 0.736 | 0.736 | 0.602 | 1.14 | 0.959 | 0.696 | 0.512 | 0.391 | 0.696
5 | NCI-H1915 | 0.968 | 1.12 | 0.944 | 0.866 | 0.255 | 0.799 | 0.784 | 0.743 | 0.758 | 0.542 | 0.534 | 0.564 | 0.53 | 0.543 | 0.787 | 0.906 | 0.527 | 0.434 | 0.194 | 0.809
6 | NCI-H1944 | 1.08 | 1.12 |  | 1.24 | 0.111 | 1.06 | 1.09 |  | 1.02 | 0.335 | 0.362 | 0.338 | 0.294 | 0.317 | 0.947 | 1.07 |  | 1.04 | 0.157 | 1.01
7 | NCI-H1975 | 1.15 | 0.938 | 0.517 | 0.178 | 0.207 | 1.29 | 1.1 | 1.25 | 0.871 | 0.788 | 0.553 | 0.665 | 0.826 | 0.382 | 1.15 | 0.959 | 0.546 | 0.211 | 0.192 | 1.09
8 | NCI-H1993 | 0.671 | 0.747 | 0.696 | 0.491 | 0.567 | 0.946 | 1 | 0.871 | 0.922 | 0.686 | 0.627 | 0.699 | 0.583 | 0.614 | 0.907 | 0.824 | 0.658 | 0.508 | 0.557 | 0.887
9 | NCI-H2009 | 1.16 | 1.12 | 1.02 | 0.465 | 0.139 | 1.18 | 1.19 | 1.18 | 0.765 | 0.214 | 0.201 | 0.272 | 0.215 | 0.16 | 1.1 | 0.981 | 0.698 | 0.165 | 0.111 | 1.08
10 | NCI-H2023 | 0.81 | 0.569 | 0.558 | 0.197 | 0.121 | 1.01 | 1.03 | 0.908 | 0.152 | 0.413 | 0.373 |  | 0.309 | 0.0908 | 0.671 | 0.618 | 0.432 | 0.172 | 0.0868 | 
11 | NCI-H2085 | 0.786 | 0.976 | 0.687 | 0.497 | 0.278 | 1.21 | 1.16 | 1.16 | 1.11 | 0.453 | 0.466 | 0.477 | 0.454 | 0.457 | 0.613 | 0.753 | 0.788 | 0.511 | 0.315 | 1.02
12 | NCI-H2087 | 0.887 | 0.659 | 0.308 | 0.127 | 0.203 | 1.24 | 1.11 | 1.12 | 0.797 | 0.179 | 0.224 | 0.258 | 0.254 | 0.268 | 0.822 | 0.827 | 0.265 | 0.156 | 0.152 | 0.997
13 | NCI-H2126 | 0.644 | 0.685 | 0.715 | 0.577 | 0.316 | 0.873 | 0.863 | 0.815 | 0.804 | 0.351 | 0.351 | 0.358 | 0.351 | 0.365 | 1.03 | 0.997 | 0.878 | 0.6 | 0.322 | 0.896
14 | NCI-H2228 | 0.563 | 0.795 | 0.544 | 0.167 | 0.409 | 0.822 | 0.572 | 0.552 | 0.0937 | 0.709 | 0.612 | 0.563 | 0.73 | 0.115 | 0.389 | 0.442 | 0.405 | 0.179 | 0.22 | 0.513
15 | NCI-H2347 | 1.04 | 1.08 | 0.824 | 0.511 | 0.447 | 0.968 | 0.864 | 0.601 | 0.73 | 0.424 | 0.437 | 0.427 | 0.407 | 0.404 | 0.752 | 0.654 | 0.62 | 0.395 | 0.365 | 0.858
16 | NCI-H2405 | 1.18 | 1.06 | 0.695 | 0.335 | 0.185 | 0.957 | 0.92 | 0.431 | 0.743 | 0.515 | 0.549 | 0.547 | 0.503 | 0.45 | 0.915 | 0.86 | 0.491 | 0.572 | 0.304 | 0.997
